In PubChem BioAssay AID328 (DTP/NCI, 2004):
“And” between values parts separate entries of the source, which are not always exact repeats. Equal values may be shown once. Toxic doses and inconclusive results are not listed.

Tested on: BDF1 mice, P388 leukemia ip, median survival T/C
Assay: NCI In Vivo Anticancer Drug Screen. Data for tumor model P388 Leukemia (intraperitoneal) in B6D2F1 (BDF1) mice
Details: endpoint: median survival time, higher = longer survival
In short: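 Transplantable tumour in mice; compound vs vehicle dosing; survival scored; ratio of treated to control reported.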

[1] = dose: 100.0 mg/kg/injection, schedule: Q04DX003 (ip), vehicle: Klucel (hydroxypropylcellulose) (HPC)
[2] = dose: 200.0 mg/kg/injection, schedule: Q04DX003 (ip), vehicle: Klucel (hydroxypropylcellulose) (HPC)
[3] = dose: 400.0 mg/kg/injection, schedule: Q04DX003 (ip), vehicle: Klucel (hydroxypropylcellulose) (HPC)
[4] = dose: 100.0 mg/kg/injection, schedule: Q04DX003 (ip), vehicle: saline with Tween-80
[5] = dose: 200.0 mg/kg/injection, schedule: Q04DX003 (ip), vehicle: saline with Tween-80
[6] = dose: 400.0 mg/kg/injection, schedule: Q04DX003 (ip), vehicle: saline with Tween-80
[7] = dose: 100.0 mg/kg/injection, schedule: Q04DX003 (ip), vehicle: saline
[8] = dose: 200.0 mg/kg/injection, schedule: Q04DX003 (ip), vehicle: saline
[9] = dose: 400.0 mg/kg/injection, schedule: Q04DX003 (ip), vehicle: saline
[10] = dose: 25.0 mg/kg/injection, schedule: Q04DX003 (ip), vehicle: saline with Tween-80
[11] = dose: 50.0 mg/kg/injection, schedule: Q01DX009 (ip), vehicle: saline with Tween-80
[12] = dose: 12.5 mg/kg/injection, schedule: Q01DX009 (ip), vehicle: water
[13] = dose: 25.0 mg/kg/injection, schedule: Q01DX009 (ip), vehicle: water
[14] = dose: 25.0 mg/kg/injection, schedule: Q04DX003 (ip), vehicle: water
[15] = dose: 50.0 mg/kg/injection, schedule: Q04DX003 (ip), vehicle: water
[16] = dose: 100.0 mg/kg/injection, schedule: Q01DX009 (ip), vehicle: water
[17] = dose: 100.0 mg/kg/injection, schedule: Q04DX003 (ip), vehicle: water
[18] = dose: 200.0 mg/kg/injection, schedule: Q01DX009 (ip), vehicle: water
[19] = dose: 400.0 mg/kg/injection, schedule: Q01DX009 (ip), vehicle: water
[20] = dose: 50.0 mg/kg/injection, schedule: Q01DX009 (ip), vehicle: saline
[21] = dose: 50.0 mg/kg/injection, schedule: Q04DX003 (ip), vehicle: saline
[22] = dose: 100.0 mg/kg/injection, schedule: Q01DX009 (ip), vehicle: Klucel (hydroxypropylcellulose) (HPC)
[23] = dose: 200.0 mg/kg/injection, schedule: Q01DX009 (ip), vehicle: Klucel (hydroxypropylcellulose) (HPC)

SMILES: O=C1c2c(O)ccc(O)c2C(=O)c2c(NCCOCCO)ccc(NCCOCCO)c21
- T/C (dose: 25.0 mg/kg/injection, schedule: Q01DX005 (ip), vehicle: saline with Tween-80): 102 % of control
- T/C (dose: 50.0 mg/kg/injection, schedule: Q01DX005 (ip), vehicle: saline with Tween-80): 100 % of control
- T/C (dose: 100.0 mg/kg/injection, schedule: Q01DX005 (ip), vehicle: saline with Tween-80): 118 % of control
- T/C (dose: 200.0 mg/kg/injection, schedule: Q01DX005 (ip), vehicle: saline with Tween-80): 109 % of control

SMILES: CN(C)c1cc(Br)c(C=O)cc1[N+](=O)[O-]
- T/C [1]: 95 % of control
- T/C [2]: 95 % of control
- T/C [3]: 100 % of control

SMILES: CCCCSc1nc(N)nc2c1ncn2CC(C)CC (configuration not stated)
- T/C [4]: 100 % of control
- T/C [5]: 100 % of control
- T/C [6]: 100 % of control

SMILES: C[C@]12CC[C@@H]3c4ccccc4CC[C@H]3[C@@H]1CC[C@@H]2O
- T/C [4]: 90 % of control
- T/C [5]: 90 % of control
- T/C [6]: 100 % of control

SMILES: CCCCCCCCCCCC(O)CCCCC (configuration not stated)
- T/C (dose: 100.0 mg/kg/injection, schedule: Q01DX009 (ip), vehicle: other): 120 % of control
- T/C (dose: 200.0 mg/kg/injection, schedule: Q01DX009 (ip), vehicle: other): 115 % of control
- T/C (dose: 400.0 mg/kg/injection, schedule: Q01DX009 (ip), vehicle: other): 115 % of control

SMILES: C=C(C)c1cc2c(cc1O)OCC2C (configuration not stated)
- T/C [1]: 92 % of control
- T/C (dose: 300.0 mg/kg/injection, schedule: Q01DX009 (ip), vehicle: Klucel (hydroxypropylcellulose) (HPC)): 90 % of control
- T/C [3]: 92 % of control

SMILES: C/C(=N\N=C(N)N)c1ccc(NC(=O)Nc2ccc(/C(C)=N/N=C(N)N)cc2)cc1
- T/C (dose: 1.5 mg/kg/injection, schedule: Q04DX003 (ip), vehicle: saline): 115 % of control
- T/C (dose: 5.4 mg/kg/injection, schedule: Q04DX003 (ip), vehicle: saline): 150 % of control
- T/C (dose: 44.0 mg/kg/injection, schedule: Q04DX003 (ip), vehicle: saline): 163 % of control
- T/C (dose: 66.0 mg/kg/injection, schedule: Q04DX003 (ip), vehicle: saline): 118 % of control
- T/C [7]: 154 % of control
- T/C [8]: 179 % of control
- T/C (dose: 264.0 mg/kg/injection, schedule: Q04DX003 (ip), vehicle: saline): 180 % of control and 222 % of control
- T/C [9]: 236 % of control and 241 % of control and 190 % of control

SMILES: c1cc[c]([Sn]([O][Sn]([c]2ccccc2)([c]2ccccc2)[c]2ccccc2)([c]2ccccc2)[c]2ccccc2)cc1
- T/C [10]: 95 % of control

SMILES: COc1cc2ccc3c(c2cc1OC)C=[N+](C)CC3
- T/C [11]: 108 % of control
- T/C [7]: 118 % of control
- T/C [8]: 118 % of control
- T/C [9]: 90 % of control

SMILES: Cc1nc2c(NC(=O)CCl)nn(C)c2nc1C
- T/C [10]: 105 % of control
- T/C (dose: 50.0 mg/kg/injection, schedule: Q04DX003 (ip), vehicle: saline with Tween-80): 110 % of control
- T/C [4]: 95 % of control

SMILES: COc1cccc2c1C(=O)c1c(O)c3c(c(O)c1C2=O)C[C@@](O)(C(C)=O)C[C@@H]3OC1CC(NC=O)C(O)C(C)O1 (some centres not stated)
- T/C (dose: 0.25 mg/kg/injection, schedule: Q01DX009 (ip), vehicle: water): 108 % of control and 110 % of control
- T/C (dose: 0.5 mg/kg/injection, schedule: Q01DX009 (ip), vehicle: water): 110 % of control and 117 % of control
- T/C (dose: 1.0 mg/kg/injection, schedule: Q01DX009 (ip), vehicle: water): 107 % of control
- T/C (dose: 2.0 mg/kg/injection, schedule: Q01DX009 (ip), vehicle: water): 186 % of control
- T/C (dose: 4.0 mg/kg/injection, schedule: Q01DX009 (ip), vehicle: water): 205 % of control
- T/C (dose: 8.0 mg/kg/injection, schedule: Q01DX009 (ip), vehicle: water): 169 % of control

SMILES: O=C(Nc1ccc(Nc2ccncc2)cc1)c1ccc([N+](=O)[O-])cc1
- T/C [1]: 90 % of control
- T/C [2]: 90 % of control
- T/C [3]: 118 % of control

SMILES: O=c1[nH]c2ccccc2c(=O)n1C1CCCCC1
- T/C [12]: 111 % of control
- T/C (dose: 12.5 mg/kg/injection, schedule: Q04DX003 (ip), vehicle: water): 96 % of control
- T/C [13]: 111 % of control
- T/C [14]: 100 % of control
- T/C [15]: 107 % of control
- T/C [16]: 106 % of control
- T/C [17]: 105 % of control
- T/C [18]: 101 % of control
- T/C [19]: 101 % of control

SMILES: CCCC(N=Cc1ccccc1O)C(=O)O.CCCC(N=Cc1ccccc1O)C(=O)O.[Fe] (configuration not stated)
- T/C (dose: 12.5 mg/kg/injection, schedule: Q01DX009 (ip), vehicle: saline): 86 % of control
- T/C (dose: 25.0 mg/kg/injection, schedule: Q01DX009 (ip), vehicle: saline): 90 % of control
- T/C [20]: 90 % of control
- T/C [21]: 90 % of control

SMILES: COc1cccc(Sc2ccc([N+](=O)[O-])c3no[n+]([O-])c23)c1
- T/C (dose: 30.0 mg/kg/injection, schedule: Q01DX009 (ip), vehicle: saline with Tween-80): 102 % of control
- T/C (dose: 60.0 mg/kg/injection, schedule: Q01DX009 (ip), vehicle: saline with Tween-80): 115 % of control

SMILES: COC1=C(O)C(C(O)CO)OC1=O (configuration not stated)
- T/C (dose: 6.25 mg/kg/injection, schedule: Q01DX009 (ip), vehicle: water): 94 % of control
- T/C [12]: 112 % of control
- T/C [13]: 110 % of control
- T/C [14]: 112 % of control
- T/C (dose: 50.0 mg/kg/injection, schedule: Q01DX009 (ip), vehicle: water): 100 % of control
- T/C [15]: 97 % of control
- T/C [16]: 91 % of control
- T/C [17]: 100 % of control
- T/C [18]: 103 % of control
- T/C (dose: 200.0 mg/kg/injection, schedule: Q04DX003 (ip), vehicle: water): 95 % of control
- T/C [19]: 100 % of control
- T/C (dose: 400.0 mg/kg/injection, schedule: Q04DX003 (ip), vehicle: water): 105 % of control

SMILES: NN1N=Nc2cccc3cccc1c23
- T/C [20]: 105 % of control
- T/C (dose: 100.0 mg/kg/injection, schedule: Q01DX009 (ip), vehicle: saline): 110 % of control
- T/C (dose: 110.0 mg/kg/injection, schedule: Q04DX003 (ip), vehicle: saline): 100 % of control
- T/C (dose: 170.0 mg/kg/injection, schedule: Q04DX003 (ip), vehicle: saline): 95 % of control
- T/C (dose: 200.0 mg/kg/injection, schedule: Q01DX009 (ip), vehicle: saline): 110 % of control
- T/C (dose: 255.0 mg/kg/injection, schedule: Q04DX003 (ip), vehicle: saline): 95 % of control

SMILES: O=[N+]([O-])/C=C\c1cc2c3c(c1)CCCN3CCC2
- T/C (dose: 3.13 mg/kg/injection, schedule: Q01DX001 (ip), vehicle: saline with Tween-80): 100 % of control
- T/C (dose: 6.25 mg/kg/injection, schedule: Q01DX001 (ip), vehicle: saline with Tween-80): 100 % of control
- T/C (dose: 12.5 mg/kg/injection, schedule: Q01DX001 (ip), vehicle: saline with Tween-80): 104 % of control

SMILES: Cc1c2c(cc3c1[nH]c1ccccc13)C(c1ccc(Cl)cc1)=NCC2
- T/C [22]: 86 % of control

SMILES: CCOC(=O)c1ccc(C=O)[nH]1
- T/C [11]: 101 % of control
- T/C (dose: 100.0 mg/kg/injection, schedule: Q01DX009 (ip), vehicle: saline with Tween-80): 99 % of control
- T/C (dose: 200.0 mg/kg/injection, schedule: Q01DX009 (ip), vehicle: saline with Tween-80): 99 % of control

SMILES: Cc1nnc(NC2=NCCO2)s1
- T/C [21]: 86 % of control
- T/C [7]: 90 % of control
- T/C [8]: 90 % of control

SMILES: Nc1c(Br)cc(Br)c2ccccc12
- T/C [22]: 95 % of control
- T/C [23]: 113 % of control
- T/C (dose: 400.0 mg/kg/injection, schedule: Q01DX009 (ip), vehicle: Klucel (hydroxypropylcellulose) (HPC)): 109 % of control

SMILES: CC(=O)N1C(=O)NC(=O)C1(CSCc1ccccc1)CSCc1ccccc1
- T/C (dose: 25.0 mg/kg/injection, schedule: Q04DX003 (ip), vehicle: saline): 98 % of control
- T/C [21]: 98 % of control
- T/C [7]: 116 % of control
- T/C [8]: 107 % of control
- T/C [9]: 99 % of control

SMILES: CCCCC(CC)COC(=O)/C=C/C(=O)OCC(CC)CCCC (configuration not stated)
- T/C [22]: 86 % of control
- T/C [23]: 86 % of control
